In patent US20190224222A1, “METHOD OF INHIBITING QUORUM SENSING USING D-GALACTOSE” (Seoul National University R&DB Foundation, priority 2014, published 2019):

Assays:
Fn AI-2 activity = experiment: AI-2 activity, bioluminescence of reporter strain V. harveyi BB170; type: cell-based, Vibrio harveyi BB170 (ATCC BAA-1117); conditions: for Bioluminescence: V. harveyi BB170 + Fn AI-2 10% (v/v), sugar 20 mM, lower = higher inhibition, Fn/AI-2 control 10712312, BB170 alone 856873
Description: The quorum sensing autoinducer, AI-2 stimulates luciferase operon (lux genes) of V. harveyi to induce luciferase expression, resulting in luminescence. Therefore, inhibition of AI-2 activity was confirmed by measuring bioluminescence by AI-2. Bioluminescence mediated by AI-2 was determined using the AI-2 reporter strain V. harveyi BB170. V. harveyi BB170 was cultured in AB medium overnight at 30° C. until OD600 nm=0.7. The bacteria were washed with fresh AB medium and diluted to a concentration of 10^6 cells/ml. Thereafter, V. harveyi BB170 culture broth (5 ml) was mixed with a partially purified F. nucleatum AI-2(′Fn AI-2′) and D-gal (0 or 20 mM) or D-rib (0 or 20 mM). The partially purified Fn AI-2 was obtained by partially purifying the Fn culture broth using a C18 Sep-Pak reverse-phase column (Waters Co., Milford, Mass.). The Fn culture broth or the partially purified Fn AI-2 was added such that a final concentration of AI-2 in the mixture was 10% (vol/vol). 10% (v/v) of Fn AI-2 corresponds to the Fn bacterial number of 1.9×10^8. Then, culture was performed at 30° C. for 1-8 hours. The bioluminescence was measured using a luminometer (GloMax1—Multi detection System, Promega, Madison, Wis.). BB170 is one of V. harveyi bacteria which have a characteristic of recognizing AI-2 to show bioluminescence. The higher bioluminescence value thus measured represents higher AI-2 activity.

S. oxalis (So) biofilm = experiment: S. oxalis biofilm formation, crystal violet staining; type: cell-based, Streptococcus oxalis (ATCC 9811); conditions: for OD590: So on saliva-coated glass slip, sugar 2 mM, So control 0.59
Description: 2 mL (2×10^7/ml) of the culture broth of a representative cariogenic bacterium S. mutans (Sm) and 2 mL (2×10^7/ml) of the culture broth of one of normal oral flora, S. oxalis (SO) were added to a saliva-coated glass slip (round, 12 mm radius), respectively and cultured with 0 mM or 2 mM of D-galactose to form biofilms. […] Further, the biofilms were stained with fluorescent materials using the live/dead-BacLight viability kit (Invitrogen, Grand Island, N.Y., USA), followed by analysis. For comparison, 2 μM of the furanone compound was used instead of D-galactose to perform the same test.

[1] = test system: F. nucleatum (Fn) biofilm; experiment: Fn biofilm formation induced by Fn AI-2, crystal violet staining; type: cell-based, F. nucleatum (ATCC 25586); conditions: for OD590 nm: Fn + Fn AI-2 10% (v/v), sugar 2 mM, 48-72 h, smaller OD = more inhibition of biofilm, Fn/AI-2 control 1.5, Fn 0.46
Description: To test biofilm formation by Fn, a Fn culture broth (2 ml; a negative control group, the number of bacteria: 2×10^7/ml), a mixture of Fn culture broth (2 ml) and F. nucleatum AI-2 (purified from F. nucleatum secretary material of F. nucleatum culture broth using a C18 Sep-Pak reverse-phase column (Waters Co., Milford, Mass.); hereinafter, referred to as ‘Fn AI-2’; 10% (v/v) with respect to the total volume of the mixture with Fn culture broth), or a mixture of Fn culture broth (2 ml) and Fn AI-2 (10% (v/v) with respect to the total volume of the mixture with Fn culture broth) and each of QSI candidates was added to a 24-well plate with a glass slip (round, 12 mm radius), and cultured under anaerobic conditions for 48-72 hours. As the QSI candidates, sugars (D-rib, D-gal, D-Glu, D-Man, or D-ara) were used in an amount of 2 mM, and the furanone compound [(5Z)-4-bromo-5-(bromomethylene)-2(5H)-furanone] was used in an amount of 2 μM.
Biofilms formed on the cover slips were stained with 10% crystal violet [Tris(4-(dimethylamino)phenyl)methylium chloride] for 10 minutes, washed three times with PBS, and destained with 1 ml of acetone-alcohol (20:80, vol/vol). The optical density at 590 nm of the destaining solution containing crystal violet was measured using a microplate reader (a Wallac Victor3 microtiter, PerkinElmer Life Sciences, Waltham, Mass.). The smaller optical density (OD590) measured at 590 nm represents more inhibition of biofilm formation, that is, higher quorum sensing inhibitory effect of the used QSI candidate.

[2] = test system: F. nucleatum (Fn) biofilm; experiment: Fn biofilm formation induced by Fn AI-2, fluorescence staining (confocal); type: cell-based, F. nucleatum (ATCC 25586); conditions: D-rib or D-gal 200 mM, Fn AI-2 10% (v/v)
Description: Further, inhibitory effects of individual QSI candidates on Fn biofilm formation induced by Fn AI-2 were examined by fluorescence staining. 2 ml of Fn culture broth (the number of bacteria: 2×10^7/ml) was used, and Fn AI-2 was used in a volume of 10% (v/v) with respect to the total volume of a mixture with Fn culture broth. As the QSI candidates, 200 mM of D-rib or D-gal was used, and 20 μM of the furanone compound was used. Biofilms formed on the cover slip were stained with fluorescent materials using the live/dead-BacLight viability kit (Invitrogen, Grand Island, N.Y., USA) and observed using a confocal microscope (Carl Zeiss, LSM 700). […] Fluorescence intensities of the obtained individual fluorescence images were quantified using ZEN 2010 program of a confocal microscope, and shown in FIG. 3.

For `O=C[C@H](O)[C@H](O)[C@H](O)CO` [D-rib, D-ribose, reference compound], which Bioluminescence (Fn AI-2 activity) is on record?
Its Bioluminescence is 5481975.

And the OD590 (S. oxalis (So) biofilm)?
The OD590 was 0.85.

What about the OD590 nm [1] of the same compound?
The OD590 nm was 0.77.

And the “inhibitory effect on Fn biofilm formation, in words” value [2]?
Its value is “inhibited”.

With `O=C[C@H](O)[C@@H](O)[C@@H](O)[C@H](O)CO` [D-gal, D-galactose] as the compound, how does the “bioluminescence relative to the bioluminescence upon addition of D-rib” value (Fn AI-2 activity; D-gal 20 mM vs D-rib 20 mM) read?
Its value is “about 20%”.

What about the Bioluminescence (Fn AI-2 activity) of the same compound?
Its Bioluminescence is 1138752.

What about the “quorum sensing inhibitory efficacy relative to D-ribose, in words” value (Fn AI-2 activity; general statement of the specification) of the same compound?
Its value is “twice higher than that of D-ribose”.

And the OD590 (S. oxalis (So) biofilm)?
Its OD590 is 1.07.

And the “effect on So biofilm formation, in words” value (S. oxalis (So) biofilm; crystal violet, D-gal 2 mM compared to D-rib and the furanone compound)?
The value was “did not inhibit but increased biofilm formation”.

And the OD590 nm [1]?
The OD590 nm was 0.57.

What about the “QSI inhibitory effect (inhibitory effect on Fn biofilm formation), in words” value ([1]; crystal violet, sugars 2 mM, compared to negative control Fn/AI-2) of the same compound?
The value was “excellent QSI inhibitory effect”.

What about the “inhibitory effect on Fn biofilm formation, in words” value [2] of the same compound?
The value was “remarkably excellent inhibitory effect”.
